Laboratory results taken from US9370186B2 (priority 2012, dated 2016).
Values after ≈ are worked out from the molar mass of the structure shown. Read-outs that look alike come from different tables or passages of the source.

Columns and labels:
[1] = tested on: Phytophthora infestans; assay type: in vivo; settings: tomatoes, 3 days after inoculation
[2] = tested on: Phytophthora infestans; test: whole plant or invertebrate; assay type: in vivo; settings: for Practical dose for 70% efficacy: EC70, compound alone, preventive 24 h, potato leaf discs; for EC50: Phytophthora infestans, in Solanum tuberosum, foliar, 24 h, read-out: Practical dose for 50% efficacy

Structure (SMILES) | Efficacy in % found ([1]; 5 ppm a.i.) | Practical dose for 70% efficacy [2] | EC50 [2] | Efficacy (%) ethaboxam alone ([2]; ethaboxam 0.75 mg a.i./L) | Efficacy (%) ethaboxam alone ([2]; ethaboxam 1.5 mg a.i./L) | Efficacy (%) ethaboxam alone ([2]; ethaboxam 3 mg a.i./L) | Efficacy (%) ethaboxam alone ([2]; ethaboxam 6 mg a.i./L) | Efficacy (%) ethaboxam alone ([2]; ethaboxam 12 mg a.i./L) | Efficacy (%) ethaboxam alone ([2]; ethaboxam 24 mg a.i./L) | Efficacy (%) ethaboxam alone ([2]; ethaboxam 75 mg a.i./L) | Efficacy in % found ([1]; 0.5 ppm a.i.) | Efficacy (%) fenamidone alone ([2]; fenamidone 0.5 mg a.i./L) | Efficacy (%) fenamidone alone ([2]; fenamidone 1 mg a.i./L) | Efficacy (%) fenamidone alone ([2]; fenamidone 2 mg a.i./L) | Efficacy (%) fenamidone alone ([2]; fenamidone 4 mg a.i./L) | Efficacy (%) fenamidone alone ([2]; fenamidone 8 mg a.i./L) | Efficacy (%) fenamidone alone ([2]; fenamidone 16 mg a.i./L) | Efficacy (%) fenamidone alone ([2]; fenamidone 50 mg a.i./L)
CCNc1nc(CC)c(C(=O)NC(C#N)c2cccs2)s1 (centres unmarked) [ethaboxam, N-(cyano-2-thienylmethyl)-4-ethyl-2-(ethylamino)-5-thiazolcarboxamide] | 40% | 27.820 mg a.i./L | 15.3 µg/mL (≈ 47.7 µM) | 0% | 0% | 5% | 13% | 67% | 73% | 75% | – | – | – | – | – | – | – | –
CSC1=N[C@@](C)(c2ccccc2)C(=O)N1Nc1ccccc1 [fenamidone, (S)-3,5-dihydro-5-methyl-2-(methylthio)-5-phenyl-3-(phenylamino)-4H-imidazol-4-one] | – | 9.764 mg a.i./L | 6.26 µg/mL (≈ 20.1 µM) | – | – | – | – | – | – | – | 28% | 0% | 0% | 5% | 29% | 83% | 82% | 91%
